# Measured values from the supplement of paper PMC10307832.
# Experiments:
# Assay in all cases: relative viability (nuclei count vs DMSO), 5 days (fraction); higher = more cells survive
# Erlotinib + Tozasertib = compound: C#Cc1cccc(Nc2ncnc3cc(OCCOC)c(OCCOC)cc23)c1 [Erlotinib] + Cc1cc(Nc2cc(N3CCN(C)CC3)nc(Sc3ccc(NC(=O)C4CC4)cc3)n2)n[nH]1 [Tozasertib] (partner 0.1 µM)
# Method in brief: (§1)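 A single step with final 0.05% Triton X-100, 1% formaldehyde and 1 ug/ml Hoechst fixed the cells and stained nuclei 5 days after treatment. Lung cancer cell lines in 1536-well plates had been treated by pin tool the day after seeding with one drug alone or a fixed anchor-drug dose plus five library-drug doses (not always all listed) in √10 steps, and nuclei were counted on 4× images. Relative viability is the ratio of nuclei in treated wells to nuclei in vehicle wells, taken as the median of duplicate plates.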
# Erlotinib + Navitoclax = compound: C#Cc1cccc(Nc2ncnc3cc(OCCOC)c(OCCOC)cc23)c1 [Erlotinib] + CC1(C)CCC(c2ccc(Cl)cc2)=C(CN2CCN(c3ccc(C(=O)NS(=O)(=O)c4ccc(N[C@H](CCN5CCOCC5)CSc5ccccc5)c(S(=O)(=O)C(F)(F)F)c4)cc3)CC2)C1 [Navitoclax] (partner 0.5 µM)
# Method in brief: as §1
# Erlotinib + Palbociclib = compound: C#Cc1cccc(Nc2ncnc3cc(OCCOC)c(OCCOC)cc23)c1 [Erlotinib] + CC(=O)c1c(C)c2cnc(Nc3ccc(N4CCNCC4)cn3)nc2n(C2CCCC2)c1=O [Palbociclib] (partner 0.5 µM)
# Method in brief: as §1
# Erlotinib + Vorinostat = compound: C#Cc1cccc(Nc2ncnc3cc(OCCOC)c(OCCOC)cc23)c1 [Erlotinib] + O=C(CCCCCCC(=O)Nc1ccccc1)NO [Vorinostat] (partner 1 µM)
# Method in brief: as §1
# AT9283 + Navitoclax = compound: O=C(Nc1c[nH]nc1-c1nc2ccc(CN3CCOCC3)cc2[nH]1)NC1CC1 [AT9283] + CC1(C)CCC(c2ccc(Cl)cc2)=C(CN2CCN(c3ccc(C(=O)NS(=O)(=O)c4ccc(N[C@H](CCN5CCOCC5)CSc5ccccc5)c(S(=O)(=O)C(F)(F)F)c4)cc3)CC2)C1 [Navitoclax] (partner 0.5 µM)
# Method in brief: as §1
cell line,measurement,setting,value
EKVX,relative viability,Erlotinib + Tozasertib; first compound 0.02 µM,0.329
same,relative viability,Erlotinib + Tozasertib; first compound 0.2 µM,0.226
same,relative viability,Erlotinib + Tozasertib; first compound 0.6325 µM,0.212
same,relative viability,Erlotinib + Tozasertib; first compound 2 µM,0.111
same,relative viability,Erlotinib + Navitoclax; first compound 0.02 µM,0.939
same,relative viability,Erlotinib + Navitoclax; first compound 0.2 µM,0.693
same,relative viability,Erlotinib + Navitoclax; first compound 0.6325 µM,0.289
same,relative viability,Erlotinib + Navitoclax; first compound 2 µM,0.184
same,relative viability,Erlotinib + Palbociclib; first compound 0.02 µM,0.348
same,relative viability,Erlotinib + Palbociclib; first compound 0.2 µM,0.191
same,relative viability,Erlotinib + Palbociclib; first compound 0.6325 µM,0.205
same,relative viability,Erlotinib + Palbociclib; first compound 2 µM,0.115
same,relative viability,Erlotinib + Vorinostat; first compound 0.02 µM,0.716
same,relative viability,Erlotinib + Vorinostat; first compound 0.2 µM,0.372
same,relative viability,Erlotinib + Vorinostat; first compound 0.6325 µM,0.323
same,relative viability,Erlotinib + Vorinostat; first compound 2 µM,0.259
same,relative viability,AT9283 + Navitoclax; first compound 0.003 µM,0.697
same,relative viability,AT9283 + Navitoclax; first compound 0.03 µM,0.861
same,relative viability,AT9283 + Navitoclax; first compound 0.09487 µM,0.435
same,relative viability,AT9283 + Navitoclax; first compound 0.3 µM,0.264
NCI-H2087,relative viability,Erlotinib + Tozasertib; first compound 0.02 µM,0.259
same,relative viability,Erlotinib + Tozasertib; first compound 0.2 µM,0.279
same,relative viability,Erlotinib + Tozasertib; first compound 0.6325 µM,0.191
same,relative viability,Erlotinib + Tozasertib; first compound 2 µM,0.132
same,relative viability,Erlotinib + Navitoclax; first compound 0.02 µM,1.14
same,relative viability,Erlotinib + Navitoclax; first compound 0.2 µM,0.913
same,relative viability,Erlotinib + Navitoclax; first compound 0.6325 µM,0.899
same,relative viability,Erlotinib + Navitoclax; first compound 2 µM,0.904
same,relative viability,Erlotinib + Palbociclib; first compound 0.02 µM,0.238
same,relative viability,Erlotinib + Palbociclib; first compound 0.2 µM,0.246
same,relative viability,Erlotinib + Palbociclib; first compound 0.6325 µM,0.212
same,relative viability,Erlotinib + Palbociclib; first compound 2 µM,0.226
same,relative viability,Erlotinib + Vorinostat; first compound 0.02 µM,0.778
same,relative viability,Erlotinib + Vorinostat; first compound 0.2 µM,0.788
same,relative viability,Erlotinib + Vorinostat; first compound 0.6325 µM,0.765
same,relative viability,Erlotinib + Vorinostat; first compound 2 µM,0.434
same,relative viability,AT9283 + Navitoclax; first compound 0.003 µM,0.985
same,relative viability,AT9283 + Navitoclax; first compound 0.03 µM,0.713
same,relative viability,AT9283 + Navitoclax; first compound 0.09487 µM,0.273
same,relative viability,AT9283 + Navitoclax; first compound 0.3 µM,0.186
HCC-827,relative viability,Erlotinib + Tozasertib; first compound 0.02 µM,0.223
same,relative viability,Erlotinib + Tozasertib; first compound 0.2 µM,0.114
same,relative viability,Erlotinib + Tozasertib; first compound 0.6325 µM,0.101
same,relative viability,Erlotinib + Tozasertib; first compound 2 µM,0.126
same,relative viability,Erlotinib + Navitoclax; first compound 0.02 µM,0.465
same,relative viability,Erlotinib + Navitoclax; first compound 0.2 µM,0.167
same,relative viability,Erlotinib + Navitoclax; first compound 0.6325 µM,0.162
same,relative viability,Erlotinib + Navitoclax; first compound 2 µM,0.172
same,relative viability,Erlotinib + Palbociclib; first compound 0.02 µM,0.191
same,relative viability,Erlotinib + Palbociclib; first compound 0.2 µM,0.146
same,relative viability,Erlotinib + Palbociclib; first compound 0.6325 µM,0.135
same,relative viability,Erlotinib + Palbociclib; first compound 2 µM,0.154
same,relative viability,Erlotinib + Vorinostat; first compound 0.02 µM,0.228
same,relative viability,Erlotinib + Vorinostat; first compound 0.2 µM,0.186
same,relative viability,Erlotinib + Vorinostat; first compound 0.6325 µM,0.121
same,relative viability,Erlotinib + Vorinostat; first compound 2 µM,0.132
same,relative viability,AT9283 + Navitoclax; first compound 0.003 µM,0.995
same,relative viability,AT9283 + Navitoclax; first compound 0.03 µM,0.879
same,relative viability,AT9283 + Navitoclax; first compound 0.09487 µM,0.449
same,relative viability,AT9283 + Navitoclax; first compound 0.3 µM,0.326
A-427,relative viability,Erlotinib + Tozasertib; first compound 0.02 µM,0.251
same,relative viability,Erlotinib + Tozasertib; first compound 0.2 µM,0.225
same,relative viability,Erlotinib + Tozasertib; first compound 0.6325 µM,0.197
same,relative viability,Erlotinib + Tozasertib; first compound 2 µM,0.162
same,relative viability,Erlotinib + Navitoclax; first compound 0.02 µM,0.946
same,relative viability,Erlotinib + Navitoclax; first compound 0.2 µM,0.99
same,relative viability,Erlotinib + Navitoclax; first compound 0.6325 µM,0.978
same,relative viability,Erlotinib + Navitoclax; first compound 2 µM,0.997
same,relative viability,Erlotinib + Palbociclib; first compound 0.02 µM,0.485
same,relative viability,Erlotinib + Palbociclib; first compound 0.2 µM,0.492
same,relative viability,Erlotinib + Palbociclib; first compound 0.6325 µM,0.529
same,relative viability,Erlotinib + Palbociclib; first compound 2 µM,0.53
same,relative viability,Erlotinib + Vorinostat; first compound 0.02 µM,0.844
same,relative viability,Erlotinib + Vorinostat; first compound 0.2 µM,0.834
same,relative viability,Erlotinib + Vorinostat; first compound 0.6325 µM,0.932
same,relative viability,Erlotinib + Vorinostat; first compound 2 µM,0.892
same,relative viability,AT9283 + Navitoclax; first compound 0.003 µM,1.05
same,relative viability,AT9283 + Navitoclax; first compound 0.03 µM,0.691
same,relative viability,AT9283 + Navitoclax; first compound 0.09487 µM,0.174
same,relative viability,AT9283 + Navitoclax; first compound 0.3 µM,0.167
NCI-H460,relative viability,Erlotinib + Tozasertib; first compound 0.02 µM,0.44
same,relative viability,Erlotinib + Tozasertib; first compound 0.2 µM,0.191
same,relative viability,Erlotinib + Tozasertib; first compound 0.6325 µM,0.109
same,relative viability,Erlotinib + Tozasertib; first compound 2 µM,0.0585
same,relative viability,Erlotinib + Navitoclax; first compound 0.02 µM,1.09
same,relative viability,Erlotinib + Navitoclax; first compound 0.2 µM,0.867
same,relative viability,Erlotinib + Navitoclax; first compound 0.6325 µM,1.44
same,relative viability,Erlotinib + Palbociclib; first compound 0.02 µM,0.257
same,relative viability,Erlotinib + Palbociclib; first compound 0.2 µM,0.14
same,relative viability,Erlotinib + Palbociclib; first compound 0.6325 µM,0.198
same,relative viability,Erlotinib + Palbociclib; first compound 2 µM,0.183
same,relative viability,Erlotinib + Vorinostat; first compound 0.02 µM,0.832
same,relative viability,Erlotinib + Vorinostat; first compound 0.2 µM,0.734
same,relative viability,Erlotinib + Vorinostat; first compound 0.6325 µM,0.969
same,relative viability,Erlotinib + Vorinostat; first compound 2 µM,0.601
same,relative viability,AT9283 + Navitoclax; first compound 0.003 µM,1.23
same,relative viability,AT9283 + Navitoclax; first compound 0.03 µM,0.987
same,relative viability,AT9283 + Navitoclax; first compound 0.09487 µM,0.0587
same,relative viability,AT9283 + Navitoclax; first compound 0.3 µM,0.0315
NCI-H1734,relative viability,Erlotinib + Tozasertib; first compound 0.02 µM,0.259
same,relative viability,Erlotinib + Tozasertib; first compound 0.2 µM,0.238
same,relative viability,Erlotinib + Tozasertib; first compound 0.6325 µM,0.273
same,relative viability,Erlotinib + Tozasertib; first compound 2 µM,0.273
same,relative viability,Erlotinib + Navitoclax; first compound 0.02 µM,0.852
same,relative viability,Erlotinib + Navitoclax; first compound 0.2 µM,0.795
same,relative viability,Erlotinib + Navitoclax; first compound 0.6325 µM,0.907
same,relative viability,Erlotinib + Navitoclax; first compound 2 µM,0.75
same,relative viability,Erlotinib + Palbociclib; first compound 0.02 µM,0.346
same,relative viability,Erlotinib + Palbociclib; first compound 0.2 µM,0.342
same,relative viability,Erlotinib + Palbociclib; first compound 0.6325 µM,0.372
same,relative viability,Erlotinib + Palbociclib; first compound 2 µM,0.41
same,relative viability,Erlotinib + Vorinostat; first compound 0.02 µM,0.954
same,relative viability,Erlotinib + Vorinostat; first compound 0.6325 µM,0.938
same,relative viability,Erlotinib + Vorinostat; first compound 2 µM,0.81
same,relative viability,AT9283 + Navitoclax; first compound 0.003 µM,0.839
same,relative viability,AT9283 + Navitoclax; first compound 0.03 µM,0.318
same,relative viability,AT9283 + Navitoclax; first compound 0.09487 µM,0.131
same,relative viability,AT9283 + Navitoclax; first compound 0.3 µM,0.127
NCI-H2009,relative viability,Erlotinib + Tozasertib; first compound 0.02 µM,0.751
same,relative viability,Erlotinib + Tozasertib; first compound 0.2 µM,0.746
same,relative viability,Erlotinib + Tozasertib; first compound 0.6325 µM,0.834
same,relative viability,Erlotinib + Tozasertib; first compound 2 µM,0.62
same,relative viability,Erlotinib + Navitoclax; first compound 0.02 µM,1.25
same,relative viability,Erlotinib + Navitoclax; first compound 0.2 µM,1.24
same,relative viability,Erlotinib + Navitoclax; first compound 0.6325 µM,1.24
same,relative viability,Erlotinib + Navitoclax; first compound 2 µM,1.19
same,relative viability,Erlotinib + Palbociclib; first compound 0.02 µM,0.173
same,relative viability,Erlotinib + Palbociclib; first compound 0.2 µM,0.205
same,relative viability,Erlotinib + Palbociclib; first compound 0.6325 µM,0.235
same,relative viability,Erlotinib + Palbociclib; first compound 2 µM,0.203
same,relative viability,Erlotinib + Vorinostat; first compound 0.02 µM,0.758
same,relative viability,Erlotinib + Vorinostat; first compound 0.2 µM,0.713
same,relative viability,Erlotinib + Vorinostat; first compound 0.6325 µM,0.775
same,relative viability,Erlotinib + Vorinostat; first compound 2 µM,0.667
same,relative viability,AT9283 + Navitoclax; first compound 0.003 µM,1.26
same,relative viability,AT9283 + Navitoclax; first compound 0.03 µM,0.681
same,relative viability,AT9283 + Navitoclax; first compound 0.09487 µM,0.391
same,relative viability,AT9283 + Navitoclax; first compound 0.3 µM,0.284
NCI-H1993,relative viability,Erlotinib + Tozasertib; first compound 0.02 µM,0.574
same,relative viability,Erlotinib + Tozasertib; first compound 0.2 µM,0.518
same,relative viability,Erlotinib + Tozasertib; first compound 0.6325 µM,0.569
same,relative viability,Erlotinib + Tozasertib; first compound 2 µM,0.591
same,relative viability,Erlotinib + Navitoclax; first compound 0.02 µM,0.848
same,relative viability,Erlotinib + Navitoclax; first compound 0.2 µM,0.725
same,relative viability,Erlotinib + Navitoclax; first compound 0.6325 µM,0.786
same,relative viability,Erlotinib + Navitoclax; first compound 2 µM,0.722
same,relative viability,Erlotinib + Palbociclib; first compound 0.02 µM,0.585
same,relative viability,Erlotinib + Palbociclib; first compound 0.2 µM,0.561
same,relative viability,Erlotinib + Palbociclib; first compound 0.6325 µM,0.503
same,relative viability,Erlotinib + Palbociclib; first compound 2 µM,0.514
same,relative viability,Erlotinib + Vorinostat; first compound 0.02 µM,0.811
same,relative viability,Erlotinib + Vorinostat; first compound 0.2 µM,0.724
same,relative viability,Erlotinib + Vorinostat; first compound 0.6325 µM,0.633
same,relative viability,Erlotinib + Vorinostat; first compound 2 µM,0.461
same,relative viability,AT9283 + Navitoclax; first compound 0.003 µM,0.872
same,relative viability,AT9283 + Navitoclax; first compound 0.03 µM,0.905
same,relative viability,AT9283 + Navitoclax; first compound 0.09487 µM,0.586
same,relative viability,AT9283 + Navitoclax; first compound 0.3 µM,0.466
